From patent US20220096411A1, “COMBINING METABOLIC STIMULATION AND AMINO ACIDS TO SENSITIZE TOLERANT BACTERIA TO ANTIBIOTICS” (priority 2019, published 2022) come the findings set out here.

For experiment [1], the system named is clinical isolate of Escherichia coli (isolate DICON-146). Put plainly: Killing assay, ampicillin-resistant ESBL clinical isolate in stationary phase. In kind it is cell-based. To be noted: D-methionine added on top of sulbactam and pyruvate; FIG. 3C.
Experiment [2] concerns Escherichia coli K12 strain MG1655. The experiment in a line: MIC determination (metabolite-enabled MIC from optical density dose-response). In kind it is cell-based. As to conditions: for potentiation of the antibiotic by D-amino acids: with pyruvate (FIG. 2E) or without metabolic stimulant (FIG. 2F), ampicillin potentiated, comparators D-cycloserine, ciprofloxacin, gentamicin are the non-β-lactams; for metabolite-enabled MIC of β-lactams upon metabolite supplementation: ampicillin, carbenicillin, mecillinam, penicillin, 1% LB; for metabolite-enabled MIC of β-lactams upon metabolite supplementation / metabolite-enabled MIC, D-isomer compared with L-isomer: metabolite 10 mM; for metabolite-enabled MIC, D-isomer compared with L-isomer: β-lactams of FIG. 1B; for change of ampicillin MIC on amino acid supplementation: across all tested growth-supporting metabolites (carbon sources), FIG. 2B.

Experiment [3] has the same test system. Put plainly: Killing assay (CFU) of tolerant stationary phase cultures. In kind it is cell-based. To be noted: for ability of individual carbon source to restore β-lactam antibiotic sensitivity (CFU/mL): tolerant cultures grown in 100% LB medium, FIG. 5.
Experiment [4] has as its system E. coli genetic knockout ΔdadA. The experiment in a line: Ampicillin sensitization of knockout strain unable to catabolize D-alanine into pyruvate. The class given is cell-based, Escherichia coli. To be noted: FIG. 2A; for sensitivity of tolerant ΔdadA bacteria to ampicillin on amino acid supplementation alone: no pyruvate; for potentiation of ampicillin sensitivity of ΔdadA strain by amino acid: strain supplemented with pyruvate.

Experiment [5] has as its system Escherichia coli K12 strain MG1655. In kind it is cell-based.

With `CC1(C)[C@H](C(=O)O)N2C(=O)C[C@H]2S1(=O)=O` [sulbactam, reference compound], the “restoration of ampicillin sensitivity of resistant (ESBL) E. coli in stationary phase” value in experiment [1] is “unable to restore sensitivity to ampicillin”.
With `CC1(C)S[C@@H]2[C@H](NC(=O)[C@H](N)c3ccccc3)C(=O)N2[C@H]1C(=O)O` [ampicillin, reference compound], the “potentiation of the antibiotic by D-amino acids” value (“potentiation of the antibiotic” for short) in experiment [2] was “specific to β-lactam antibiotics”. Besides, the “killing of stationary phase cultures by the antibiotic alone” value in experiment [3] (24 hour treatment with 1 mg/ml ampicillin, cultures grown in LB 24 hours, FIG. 1A) is given as “not killed”.
For `N[C@H](CO)C(=O)O` [D-serine], in experiment [2] (FIG. 1B), the “metabolite-enabled MIC of β-lactams upon metabolite supplementation” value was “lowest observed MICs”. In experiment [2], the “metabolite-enabled MIC, D-isomer compared with L-isomer” value was “outperformed their corresponding L-isomers”.
In the case of `O=C(O)[C@H]1CCCN1` [D-proline], in experiment [2] (cultures sensitized with pyruvate, alanine pair in dadA mutant, FIG. 2C), the “change of ampicillin MIC, D-amino acid compared with L-isomer” value is recorded as “less robust than for other D-amino acids”.
As to `O=C(CO)[C@@H](O)[C@H](O)[C@H](O)CO` [fructose], the “ability of individual carbon source to restore β-lactam antibiotic sensitivity (CFU/mL)” value (“ability of individual carbon source” for short) in experiment [3] is listed as “varying abilities to restore β-lactam antibiotic sensitivity”.
For gentamicin [reference compound], the “potentiation of the antibiotic” value in experiment [2] was “specific to β-lactam antibiotics”.
For `C[C@H](N)C(=O)O` [L-alanine], the “change of ampicillin MIC on amino acid supplementation” value in experiment [2] is listed as “did not”. Further, in experiment [4], the “sensitivity of tolerant ΔdadA bacteria to ampicillin on amino acid supplementation alone” value is recorded as “equally insensitive to ampicillin” and the “potentiation of ampicillin sensitivity of ΔdadA strain by amino acid” value is given as “no such potentiation was observed”.
As for `C[C@@H](N)C(=O)O` [D-alanine], in experiment [2], the “change of ampicillin MIC on amino acid supplementation” value is reported as “consistently lowered the ampicillin MIC” and the “metabolite-enabled MIC, D-isomer compared with L-isomer” value is given as “outperformed their corresponding L-isomers”. In experiment [2] (FIG. 1B), the “metabolite-enabled MIC of β-lactams upon metabolite supplementation” value is “lowest observed MICs”. In experiment [4], the “sensitivity of tolerant ΔdadA bacteria to ampicillin on amino acid supplementation alone” value was “equally insensitive to ampicillin” and the “potentiation of ampicillin sensitivity of ΔdadA strain by amino acid” value is recorded as “potentiate sensitivity to ampicillin”. Besides, in experiment [3] (cultures treated with ampicillin and metabolite, FIG. 1A), the “performance of metabolite in sensitizing cultures to ampicillin (CFU confirmed cell death)” value was “strong”.
`CCN1CCN(C(=O)N[C@@H](C(=O)N[C@@H]2C(=O)N3[C@@H]2SC(C)(C)[C@@H]3C(=O)O)c2ccccc2)C(=O)C1=O` [piperacillin, reference compound]: in experiment [3] (metabolic stimulation by pyruvate and potentiation by D-amino acids, FIG. 2G), the “sensitization of tolerant bacteria to the antibiotic” value was “sensitized tolerant bacteria”.
In the case of `O=C[C@@H](O)[C@H](O)[C@H](O)CO` [arabinose], the “ability of individual carbon source” value in experiment [3] is “varying abilities to restore β-lactam antibiotic sensitivity”.
For `OCC(O)CO` [glycerol], the “ability of individual carbon source” value in experiment [3] is listed as “varying abilities to restore β-lactam antibiotic sensitivity”.
On to `N[C@@H]1CONC1=O` [D-cycloserine, reference compound], for which, in experiment [2], the “potentiation of the antibiotic” value is on record as “specific to β-lactam antibiotics”.
Take `CSCC[C@@H](N)C(=O)O` [D-methionine]: the “observed effect size of D-amino acid on β-lactam MIC” value in experiment [2] (FIG. 1B, FIG. 2C) is reported as “larger than for D-alanine”. The “restoration of ampicillin sensitivity of resistant (ESBL) E. coli in stationary phase” value in experiment [1] is recorded as “further potentiated killing by lower drug concentrations”. For the same compound, in experiment [5] (used alone or in combination with xylose, FIG. 7B), the “effect of D-methionine on population density (CFU)” value is recorded as “did not increase population density”. Moreover, the “sensitization of stationary phase MG1655 to ampicillin in MOPS-rich medium” value in experiment [3] (MOPS-rich medium, D-methionine added on top of pyruvate, FIG. 3A) is given as “further potentiated ampicillin”.
For `O=C(O)[C@H](O)[C@@H](O)[C@H](O)[C@H](O)CO` [gluconate], the “ability of individual carbon source” value in experiment [3] was “varying abilities to restore β-lactam antibiotic sensitivity”.
As to `OC[C@@H](O)[C@@H](O)[C@H](O)[C@H](O)CO` [mannitol], the “ability of individual carbon source” value in experiment [3] is reported as “varying abilities to restore β-lactam antibiotic sensitivity”.
As to `O=C[C@H](O)[C@@H](O)[C@H](O)CO` [xylose], the “effect of carbon source on growth and population density (CFU)” value in experiment [5] (cultures grown in 1% LB medium, 10 mM, no antibiotic, FIG. 7A right) was “did stimulate growth and an increase in population density”. Also, in experiment [5] (cultures grown in 100% LB medium, 10 mM, no antibiotic, FIG. 7A left), the “effect of carbon source on population density (CFU)” value is given as “did not lead to an increase in population density”. The “ability of individual carbon source” value in experiment [3] was “varying abilities to restore β-lactam antibiotic sensitivity”.
